From ChEMBL document CHEMBL1136837, “Unified QSAR approach to antimicrobials. 4. Multi-target QSAR modeling and comparative multi-distance study of the giant components of antiviral drug-drug complex networks” (Bioorg Med Chem, 2009)
Starred links: 1 amine or outer side, 2 acyl side, 3 side chain; linkers in the order of their positions; H or OH if unused. Non-standard residues stand in square brackets, D forms with d. Residues, ends and D or L forms follow the SMILES beside them. *: point of attachment. Hyp(2-Ph-quinolin-4-yl) = O=C(O)[C@@H]1C[C@@H](Oc2cc(-c3ccccc3)nc3ccccc23)CN1; Hyp(quinolin-4-yl) = O=C(O)[C@@H]1C[C@@H](Oc2ccnc3ccccc23)CN1; Acca(2-Et,1R,2R) = CC[C@@H]1C[C@]1(N)C(=O)O; NH(1S-phenylpropyl) = CC[C@H](N*)c1ccccc1; NH(1R-phenylethyl) = C[C@@H](N*)c1ccccc1; CH2(1-naphthyl) = c1ccc2c(C*)cccc2c1; Hyp = O=C(O)[C@@H]1C[C@@H](O)CN1; azaNva = CCCN(N[*:1])C(=O)[*:2]; Chg = N[C@H](C(=O)O)C1CCCCC1; X5 = c1ccc2c(c1)CC[C@@H]2N*; X9 = C[C@H](N*)c1nnn[nH]1; X7 = C[C@H](N*)C1CCCCC1; Ac3c = NC1(C(=O)O)CC1; Bn = c1ccc(C*)cc1

Tests used:
[1] = test system: unidentified influenza virus; assay: Antiviral activity against influenza virus; type: functional, organism-based
Human betaherpesvirus 5 = assay: Antiviral activity against Human cytomegalovirus; type: functional, organism-based
Vaccinia virus = assay: Antiviral activity against Vaccinia virus; type: functional, organism-based, Orthopoxvirus vaccinia; settings: Orthopoxvirus vaccinia
[2] = test system: Human immunodeficiency virus 1; assay: Antiviral activity against HIV1; type: functional, organism-based
Human alphaherpesvirus 2 = assay: Antiviral activity against Herpes simplex virus 2; type: functional, organism-based; settings: Human alphaherpesvirus 2
Human alphaherpesvirus 3 = assay: Antiviral activity against Varicella zoster virus; type: functional, organism-based
Human alphaherpesvirus 1 = assay: Antiviral activity against Herpes simplex virus 1; type: functional, organism-based; settings: Human alphaherpesvirus 1
Hepatitis C virus = assay: Antiviral activity against Hepatitis C virus; type: functional, organism-based, Hepacivirus hominis

**Q.** For `CCC(=O)c1c(O)n(O)c2cc(NC(=O)c3ccc(Cl)cc3Cl)ccc12`, which IC50 [1] is on record?
**A.** 45000 nM

**Q.** `CCCCCCCCCCCCCCCCCCOCCCOP(=O)(O)CO[C@H](CO)Cn1ccc(N)nc1=O` was tested. Which IC50 (Human betaherpesvirus 5; Human betaherpesvirus 5) did it give?
**A.** 0.03 nM

**Q.** For `CC(NP1(=O)CO[C@@H](Cn2ccc(N)nc2=O)CO1)C(=O)OCCc1ccccc1` (stereo not given in full), which IC50 (Vaccinia virus) is on record?
**A.** 7100 nM

**Q.** With `O[C@@H]1[C@H](O)[C@@H](n2c(Cl)nc3cc(Cl)c(Cl)cc32)O[C@H]1C(F)(F)F` as the molecule, how does the IC50 (Human betaherpesvirus 5; Human betaherpesvirus 5) read?
**A.** 450 nM

**Q.** For `COc1c(C#N)c2cc(Cl)c(Cl)cc2n1[C@H]1C[C@H](O)[C@@H](CO)O1`, which IC50 [2] is on record?
**A.** 90000 nM

**Q.** What about the IC50 (Human betaherpesvirus 5; Human betaherpesvirus 5) of the same molecule?
**A.** 68000 nM

**Q.** Which IC50 [2] does the source give for `N#Cc1c(Cl)n([C@@H]2O[C@H](CN=[N+]=[N-])[C@@H](O)[C@H]2O)c2cc(Cl)c(Cl)cc12` here?
**A.** 15000 nM

**Q.** What about the IC50 (Human betaherpesvirus 5; Human betaherpesvirus 5) of the same molecule?
**A.** 3000 nM

**Q.** Which results are given for `COc1c(C=O)c2cc(Cl)c(Cl)cc2n1[C@H]1C[C@H](O)[C@@H](CO)O1`?
**A.** IC50 [2]: 100000 nM; IC50 (Human betaherpesvirus 5; Human betaherpesvirus 5): 100000 nM

**Q.** With `CCCOc1ccc(NC(=O)N2CCC[C@H]2C(=O)N2CC[C@H]3[C@H]2[C@H](C)C(=O)N3C(=O)C2CC2)cc1` as the molecule, how does the IC50 (Human betaherpesvirus 5; Human betaherpesvirus 5) read?
**A.** 210 nM

**Q.** How did the IC50 [1] turn out when `O=C(O)/C(O)=C/C(=O)c1ccc(C2CCCCC2)cc1` was run?
**A.** 5000 nM

**Q.** Which IC50 (Vaccinia virus) does the source give for `CCCCCCCCCCCCCCCCCCOCCOP1(=O)CO[C@@H](Cn2ccc(N)nc2=O)CO1` (stereo not given in full) here?
**A.** 580 nM

**Q.** With `OC[C@H]1O[C@@H](n2c(Cl)nc3cc(Cl)c(Cl)cc32)[C@H](O)[C@@H]1O` as the molecule, how does the IC50 (Human betaherpesvirus 5; Human betaherpesvirus 5) read?
**A.** 3200 nM

**Q.** Which IC50 (Human betaherpesvirus 5; Human betaherpesvirus 5) does the source give for `CC(=O)c1c(Br)n([C@H]2C[C@H](O)[C@@H](CO)O2)c2cc(Cl)c(Cl)cc12` here?
**A.** 340 nM

**Q.** Which results are given for `CN(C)c1cc(O)nc(N)n1`?
**A.** IC50 (Human alphaherpesvirus 2): 2.6 nM; IC50 (Human alphaherpesvirus 3): 0.325 nM; IC50 (Human alphaherpesvirus 1): 2.6 nM

**Q.** What does the source list for `CC(C)OP(=O)(COCCOc1cc(N)ncn1)OC(C)C`?
**A.** IC50 [2]: 6010 nM; IC50 (Human alphaherpesvirus 2): 1.2 nM; IC50 (Human alphaherpesvirus 3): 0.15 nM; IC50 (Human alphaherpesvirus 1): 1.2 nM

**Q.** For `CCCN(NC(=O)[C@@H]1C[C@@H](OCc2ccccc2)CN1C(=O)[C@@H](NC(=O)[C@@H](NC(=O)[C@@H](CCC(=O)O)NC(=O)[C@H](CC(=O)O)NC(C)=O)[C@@H](C)CC)C(C)C)C(=O)N[C@H]1CCc2ccccc21` (Ac-D[dE]IV[Hyp](Bn)[azaNva]-X5), which IC50 (Hepatitis C virus; Hepatitis C virus) is on record?
**A.** 100 nM

**Q.** `CCCN(NC(=O)[C@@H]1C[C@@H](OCc2ccccc2)CN1C(=O)[C@@H](NC(=O)[C@@H](NC(=O)[C@@H](CCC(=O)O)NC(=O)[C@H](CC(=O)O)NC(C)=O)[C@@H](C)CC)C(C)C)C(=O)N[C@@H](C)C1CCCCC1` (Ac-D[dE]IV[Hyp](Bn)[azaNva]-X7) was tested. Which IC50 (Hepatitis C virus; Hepatitis C virus) did it give?
**A.** 420 nM

**Q.** How did the IC50 (Hepatitis C virus; Hepatitis C virus) turn out when `CCCN(NC(=O)[C@@H]1C[C@@H](OCc2ccccc2)CN1C(=O)[C@@H](NC(=O)[C@@H](NC(=O)[C@@H](CCC(=O)O)NC(=O)[C@H](CC(=O)O)NC(C)=O)[C@@H](C)CC)C(C)C)C(=O)N[C@@H](C)c1nnn[nH]1` (Ac-D[dE]IV[Hyp](Bn)[azaNva]-X9) was run?
**A.** 860 nM

**Q.** `CCCN(NC(=O)[C@@H]1C[C@@H](OCc2ccccc2)CN1C(=O)[C@@H](NC(=O)[C@@H](NC(=O)[C@@H](CCC(=O)O)NC(=O)[C@H](CC(=O)O)NC(C)=O)[C@@H](C)CC)C(C)C)C(=O)N[C@H](C)c1ccccc1` (Ac-D[dE]IV[Hyp](Bn)[azaNva]-{NH(1R-phenylethyl)}) was tested. Which IC50 (Hepatitis C virus; Hepatitis C virus) did it give?
**A.** 4300 nM

**Q.** For `CCCN(NC(=O)[C@@H]1C[C@@H](OCc2ccccc2)CN1C(=O)[C@@H](NC(=O)[C@@H](NC(=O)[C@@H](CCC(=O)O)NC(=O)[C@H](CC(=O)O)NC(C)=O)[C@@H](C)CC)C(C)C)C(=O)N[C@@H](CC)c1ccccc1` (Ac-D[dE]IV[Hyp](Bn)[azaNva]-{NH(1S-phenylpropyl)}), which IC50 (Hepatitis C virus; Hepatitis C virus) is on record?
**A.** 440 nM

**Q.** How did the IC50 (Hepatitis C virus; Hepatitis C virus) turn out when `CC(=O)N[C@H](C(=O)N[C@H](C(=O)N1C[C@H](Oc2cc(-c3ccccc3)nc3ccccc23)C[C@H]1C(=O)NC1(C(=O)O)CC1)C(C)C)C1CCCCC1` (Ac-[Chg]V[Hyp(2-Ph-quinolin-4-yl)][Ac3c]-OH) was run?
**A.** 370 nM

**Q.** How did the IC50 (Hepatitis C virus; Hepatitis C virus) turn out when `CC[C@@H]1C[C@]1(NC(=O)[C@@H]1C[C@@H](Oc2cc(-c3ccccc3)nc3ccccc23)CN1C(=O)[C@@H](NC(=O)[C@@H](NC(C)=O)C1CCCCC1)C(C)C)C(=O)O` (Ac-[Chg]V[Hyp(2-Ph-quinolin-4-yl)][Acca(2-Et,1R,2R)]-OH) was run?
**A.** 13 nM

**Q.** With `CC(=O)N[C@H](C(=O)N[C@H](C(=O)N1C[C@H](Oc2ccnc3ccccc23)C[C@H]1C(=O)NC1(C(=O)O)CC1)C(C)C)C1CCCCC1` (Ac-[Chg]V[Hyp(quinolin-4-yl)][Ac3c]-OH) as the molecule, how does the IC50 (Hepatitis C virus; Hepatitis C virus) read?
**A.** 2200 nM

**Q.** Which IC50 (Hepatitis C virus; Hepatitis C virus) does the source give for `CC(=O)N[C@H](C(=O)N[C@H](C(=O)N1C[C@H](OCc2cccc3ccccc23)C[C@H]1C(=O)NC1(C(=O)O)CC1)C(C)C)C1CCCCC1` (Ac-[Chg]V[Hyp](CH2(1-naphthyl))[Ac3c]-OH) here?
**A.** 4000 nM

**Q.** `CCCC1(CC(=O)O)OCCc2c1[nH]c1c(F)ccc(C#N)c21` (single isomer, unassigned) was tested. Which IC50 (Hepatitis C virus; Hepatitis C virus) did it give?
**A.** 5200 nM

**Q.** How did the IC50 (Hepatitis C virus) turn out when `O=C(O)[C@H](Cc1ccccc1)N(Cc1ccc(-c2nccs2)cc1)C(=O)c1ccc(Cl)cc1Cl` (stereo in doubt; form 1) was run?
**A.** 620 nM

**Q.** Which IC50 (Hepatitis C virus) does the source give for `O=C(O)[C@H](Cc1ccccc1)N(Cc1ccc(-c2nccs2)cc1)C(=O)c1ccc(Cl)cc1Cl` (stereo in doubt; form 2) here?
**A.** 5700 nM

**Q.** `C[C@@H]1C(=O)N(C(=O)C2CC2)[C@H]2CCN(C(=O)[C@@H]3CCCN3S(=O)(=O)c3ccc(Cl)cc3)[C@H]12` (stereo in doubt; form 2) was tested. Which IC50 (Human betaherpesvirus 5) did it give?
**A.** 840 nM

**Q.** For `Nc1ccn(C[C@@H](CO)OCP(=O)(O)O)c(=O)n1` (stereo in doubt; form 2) [CIDOFOVIR], which IC50 (Vaccinia virus) is on record?
**A.** 32000 nM

**Q.** How did the IC50 (Human alphaherpesvirus 1) turn out when `Cc1cn([C@H]2C[C@H](O)[C@]3(CO)C[C@H]23)c(=O)[nH]c1=O` [(NORTH)-METHANOCARBATHYMIDINE] was run?
**A.** 120 nM

**Q.** How did the IC50 (Vaccinia virus) turn out when `Nc1nc2c(ncn2COCCO)c(=O)[nH]1` [ACYCLOVIR] was run?
**A.** 384 nM

**Q.** For `Nc1ncnc2c1ncn2CCOCP(=O)(O)O` [ADEFOVIR], which IC50 (Human alphaherpesvirus 1) is on record?
**A.** 0.024 nM

**Q.** For `O=c1[nH]c(=O)n([C@H]2C[C@H](O)[C@@H](CO)O2)cc1/C=C/Br` [BRIVUDINE], which IC50 (Human alphaherpesvirus 2) is on record?
**A.** 76 nM

**Q.** And the IC50 (Human betaherpesvirus 5; Human betaherpesvirus 5)?
**A.** 150000 nM

**Q.** And the IC50 (Human alphaherpesvirus 3)?
**A.** 29000 nM

**Q.** And the IC50 (Human alphaherpesvirus 1)?
**A.** 48000 nM

**Q.** And the IC50 (Vaccinia virus)?
**A.** 400000 nM

**Q.** How did the IC50 (Vaccinia virus) turn out when `CC(C)OC(=O)OCOP(=O)(CO[C@H](C)Cn1cnc2c(N)ncnc21)OCOC(=O)OC(C)C` [TENOFOVIR DISOPROXIL] was run?
**A.** 157000 nM
